Calls of active or inactive are those of the source. The calls are words filed in the database; no cut-off is given here.
Key:
[1] = Stability of compound in PBS at pH 7.4 and 37 degree C measured after 2 hrs by HPLC analysis; assay type: physicochemical; settings: buffer, pH 7.4, 2 h
[2] = Stability of compound in plasma (unknown origin) 37 degree C measured after 2 hrs by HPLC analysis; assay type: ADME, cell-free
[3] = Drug metabolism assessed as carboxylesterase (unknown origin)-mediated compound cleavage at aniline-amide bond after 2 hrs by HPLC analysis; assay type: ADME; settings: human
[4] = biological target: [Pyruvate dehydrogenase (acetyl-transferring)] kinase isozyme 1, mitochondrial (Homo sapiens) (UniProt Q15118); test: Inhibition of PDK1 (unknown origin) in plasma using PDK tide as substrate measured after 90 mins in presence of ATP by ADP-Glo luminescent kinase assay; assay type: cell-free
MCF7 [5] = test: Downregulation of PDK expression in human MCF7 cells after 48 hrs by Western blot analysis; assay type: functional, cell-based
MCF7 [6] = test: Induction of mitochondrial dysfunction in human MCF7 cells assessed as cell population with mitochondrial membrane potential collapse at 2 uM after 24 hrs by JC1 staining-based FACScalibur flow cytometry analysis (reference value: 2.74 %); assay type: functional
MCF7 [7] = test: Induction of ROS generation in human MCF7 cells assessed as ROS level at 2 uM after 24 hrs by DCFDA-fluorescence based flow cytometry (reference value: 6.57 %); assay type: functional
MCF7 [8] = test: Inhibition of glycolysis in human MCF7 cells assessed as reduction in extracellular lactate level at 2 uM after 6 hrs by microplate reader assay; assay type: functional, cell-based
4T1 [9] = test: Inhibition of glycolysis in mouse 4T1 cells expressing PDK assessed as reduction in extracellular lactate level at 2 uM after 6 hrs by microplate reader assay; assay type: functional, cell-based
MCF7 [10] = test: Induction of apoptosis in human MCF7 cells assessed as upregulation of cytochrome C expression at 2 uM after 48 hrs by Western blot analysis relative to control; assay type: functional
MCF7 [11] = test: Induction of apoptosis in human MCF7 cells assessed as downregulation of Bcl2 expression at 2 uM after 48 hrs by Western blot analysis relative to control; assay type: functional
MCF7 [12] = test: Induction of apoptosis in human MCF7 cells assessed as increase in caspase 9 expression at 2 uM after 48 hrs by Western blot analysis relative to control; assay type: functional
[13] = Selectivity index, ratio IC50 for cytotoxicity against human HBMEC cells assessed as reduction in cell viability after 72 hrs by MTT assay to IC50 for anticancer activity against human MCF7 cells assessed as reduction in cell viability after 72 hrs by MTT assay
[14] = Selectivity index, ratio IC50 for cytotoxicity against human LO2 cells assessed as reduction in cell viability after 72 hrs by MTT assay to IC50 for anticancer activity against human HCT116 cells assessed as reduction in cell viability after 72 hrs by MTT assay; assay type: toxicity, cell-based; settings: LO2 cells versus HCT116 cells, read-out: Ratio IC50
[15] = Selectivity index, ratio IC50 for cytotoxicity against human LO2 cells assessed as reduction in cell viability after 72 hrs by MTT assay to IC50 for anticancer activity against human A375 cells assessed as reduction in cell viability after 72 hrs by MTT assay; assay type: toxicity, cell-based; settings: LO2 cells versus A375 cells, read-out: Ratio IC50
[16] = Selectivity index, ratio IC50 for cytotoxicity against human LO2 cells assessed as reduction in cell viability after 72 hrs by MTT assay to IC50 for anticancer activity against mouse 4T1 cells assessed as reduction in cell viability after 72 hrs by MTT assay
HCT-116 = test: Synergistic anticancer activity against human HCT116 cells expressing assessed as combination index after 72 hrs by MTT assay; assay type: functional
[17] = Cytotoxicity against human HBMEC cells assessed as combination index after 72 hrs by MTT assay; assay type: cell-based
MCF7 [18] = test: Induction of ferroptosis in human MCF7 cells assessed as cell death at 2 uM pretreated with ferroptosis inhibitor ferrostatin-1 followed by compound treatment by MTT assay; assay type: functional, cell-based
MCF7 [19] = test: Induction of ferroptosis in human MCF7 cells assessed as reduction in cellular GSH level at 2 uM after 24 hrs by microplate reader assay; assay type: functional, cell-based
MCF7 [20] = test: Downregulation of GPX4 expression in human MCF7 cells at 2 uM after 48 hrs by Western blot analysis; assay type: functional, cell-based
[21] = Toxicity in BALB/c nude mouse xenografted with human MCF7 cells assessed as effect on ALP level in blood at 2 mg/kg, iv administered every 2 days for 2 weeks measured after 14 days; assay type: organism-based; settings: in vivo, 336 h
[22] = Toxicity in BALB/c nude mouse xenografted with human MCF7 cells assessed as effect on blood urea nitrogen at 2 mg/kg, iv administered every 2 days for 2 weeks measured after 14 days; assay type: organism-based; settings: in vivo, 336 h
4T1 [23] = test: Reversal of immunosuppression against mouse 4T1 cells implanted in BALB/c mouse assessed as reduction in tumor volume at 2 mg/kg administered intratumorally every 2 days for 2 weeks measured after 14 days; assay type: functional
4T1 [24] = test: Reversal of immunosuppression against mouse 4T1 cells implanted in BALB/c mouse assessed as growth inhibition of primary tumor at 2 mg/kg administered intratumorally every 2 days for 2 weeks measured after 14 days; assay type: functional, organism-based
[25] = Toxicity in BALB/c nude mouse xenografted with human MCF7 cells assessed as effect on kidney at 2 mg/kg, iv administered every 2 days for 2 weeks measured after 14 days by hematoxylin and eosin staining based histopathological analysis; assay type: organism-based; settings: in vivo, 336 h
[26] = Toxicity in BALB/c nude mouse xenografted with human MCF7 cells assessed as effect on lung at 2 mg/kg, iv administered every 2 days for 2 weeks measured after 14 days by hematoxylin and eosin staining based histopathological analysis; assay type: organism-based; settings: in vivo, 336 h
4T1 [27] = test: Reversal of immunosuppression against mouse 4T1 cells implanted in BALB/c mouse assessed as growth inhibition of distal tumor at 2 mg/kg administered intratumorally every 2 days for 2 weeks measured after 14 days; assay type: functional, organism-based
4T1 [28] = test: Reversal of immunosuppression against mouse 4T1 cells implanted in BALB/c mouse assessed as decrease in weight of primary tumor at 2 mg/kg administered intratumorally every 2 days for 2 weeks measured after 14 days; assay type: functional, organism-based
4T1 [29] = test: Reversal of immunosuppression against mouse 4T1 cells implanted in BALB/c mouse assessed as decrease in weight of distal tumor at 2 mg/kg administered intratumorally every 2 days for 2 weeks measured after 14 days; assay type: functional, organism-based
4T1 [30] = test: Induction of M2-TAM polarization in mouse 4T1 cells assessed as decrease in MRC1 protein level at 2 uM after 48 hrs by Western blot analysis relative to control; assay type: functional
4T1 [31] = test: Induction of M2-TAM polarization in mouse 4T1 cells assessed as decrease in Arg1 mRNA expression at 2 uM after 48 hrs by Western blot analysis relative to control; assay type: functional
Mus musculus = test: Modulation of tumor immunosuppressive activity in BALB/c mouse xenografted with mouse 4T1 cells assessed as increase in IFNgamma expression in tumor administered intratumorally every other day for 14 days measured at 2 days post-last dose by ELISA; assay type: functional, organism-based
MCF7 [32] = test: (§1) Induction of metabolic reversal from aerobic glycolysis to oxidative phosphorylation in human MCF7 cells assessed as decrease in oxygen consumption rate at 2 uM pretreated for 6 hrs followed by oligomycin A addition after 25 mins followed by subsequent addition of FCCP after 50 mins followed by antimycin/rotenone addition after 80 mins by seahorse XF24 extracellular flux analyzer assay; assay type: functional, cell-based
MCF7 [33] = test: as §1, with “3” for “6”; assay type: functional, cell-based

With `CC1(C)CC[C@]2(C(=O)O)CC[C@]3(C)C(=CC[C@@H]4[C@@]5(C)CC[C@H](O[C@@H]6O[C@H](CO[C@@H]7OC[C@H](O)[C@H](O)[C@H]7O)[C@@H](O)[C@H](O)[C@H]6NC(=O)C(Cl)Cl)C(C)(C)[C@@H]5CC[C@]43C)[C@@H]2C1` the Stability [1] was “Stable”, the Stability [2] was “Stable” and the Drug metabolism [3] was “Metabolite_Detected”. The inhibition [4] was “inactive”, the Activity (MCF7 [5]) was “Dose-dependent effect” and the Activity (MCF7 [6]) was 46.39%. The Activity (MCF7 [7]) was 44.19%, the inhibition (MCF7 [8]) was “Active” and the inhibition (4T1 [9]) was “Active”. For the same compound, the “fold change (FC)” value (MCF7 [10]) was 4.4, the “fold change (FC)” value (MCF7 [11]) was 0.5 and the “fold change (FC)” value (MCF7 [12]) was 6. For the same compound, the “Ratio IC50” value [13] was 88.83, the selectivity ratio at 72 h [14] was 12.7 and the selectivity ratio at 72 h [15] was 14.1. The “Ratio IC50” value [16] was 40.56, the CI (HCT-116) was 0.22 and the CI [17] was 1.41. For the same compound, the Activity (MCF7 [18]) was “inactive”, the Activity (MCF7 [19]) was “Active” and the Activity (MCF7 [20]) was “Active”. The Activity [21] was “Non-Toxic”, the Activity [22] was “Non-Toxic” and the Activity (4T1 [23]) was less than 100 mm3. For the same compound, the “growth inhibition (GI)” value (4T1 [24]) was “Active”, the Activity [25] was “Non-Toxic” and the Activity [26] was “Non-Toxic”. The Activity (4T1 [27]) was “Active”, the Activity (4T1 [28]) was “Active” and the Activity (4T1 [29]) was “Active”. For the same compound, the “fold change (FC)” value (4T1 [30]) was 3.4, the “fold change (FC)” value (4T1 [31]) was 2.1 and the Activity (Mus musculus) was “Active”. For the same compound, the Activity (MCF7 [32]) was “Active” and the Activity (MCF7 [33]) was “inactive”.

From ChEMBL document CHEMBL4354807, “Natural Product Albiziabioside A Conjugated with Pyruvate Dehydrogenase Kinase Inhibitor Dichloroacetate To Induce Apoptosis-Ferroptosis-M2-TAMs Polarization for Combined Cancer Therapy” (J Med Chem, 2019)
